For data set [1] the following is noted: cited from earlier work.
For data set [2] the following is noted: cited from earlier work. The source holds these as a separate data set.
The test system of data set [3] is mouse hepatitis virus (MHV). Kind of data set: MHV assay (MHV-nLuc in DBT cells). The settings on record: read-out: IC50 for the assay; MHV-nLuc, DBT cells; positive control.
Method: DBT cells were cultured at 37 °C in Dulbecco’s modified Eagle medium (DMEM; Sigma-Aldrich, St. Louis, MO, USA) supplemented with 10% fetal bovine serum (FBS; Avantor, Randor, PA, USA) and penicillin and streptomycin (Sigma-Aldrich, St. Louis, MO, USA). DBT cells were plated in 96-well plates to be 80% confluent at the start of the assay. Test compounds or positive control EIDD-1931 were diluted to 15 μM in DMEM. Serial 4-fold dilutions were made in DMEM, providing a concentration range of 15–0.22 μM. Media were aspirated from the DBT cells, and 100 μL of the diluted test compounds was added to the cells for 1 h at 37 °C. After 1 h, MHV-nLuc5 was added at an MOI of 0.1 in 50 μL of DMEM so that the final concentration of the first dilution of the compound was 10 μM (T = 0). After 10 h, the media were aspirated, and the cells were washed with PBS and lysed with passive lysis 5X buffer (Promega, Madison, WI, USA) for 20 min at room temperature. Relative light units (RLUs) were measured using a luminometer (Promega; GloMax, Madison, WI, USA). Triplicate data were analyzed in GraphPad Prism version 9.4.1 for macOS to generate IC50 values.
Another data set deals with SARS-CoV-2. Kind of data set: SARS-CoV-2 assay in A549-ACE2 cells. To be noted: Severe acute respiratory syndrome coronavirus 2, triplicate, read-out: SARS-CoV-2 pIC50 (converted). The class given is cell-based.
Data set [4] is described as follows: CellTiter-Glo cytotoxicity assay. It counts as cell-based, Human. The settings on record: human, A549-ACE2 cells, 48 h, CellTiter-Glo, quadruplicate. The protocol:
A549-ACE2 cells were maintained in low-glucose DMEM (Gibco, Waltham, MA, USA) supplemented with 10% FBS, 1% NEAA, and 1% L-glutamine. No antibiotics were used. Cells were plated at 2000 cells/well in a 384-well plate (Costar, Glendale, AZ, USA) and incubated overnight (37 °C, 5% CO2) before adding the compound. Compounds were added in quadruplicate and incubated for 48 h. DMSO percentage was constant across all concentrations of the compound. Cell viability was measured using CellTiter-Glo2 (Promega, Madison, WI, USA) and the luminescence signal was read on a GloMax plate reader (Promega, Madison, WI, USA). Dose–response analysis was performed using GraphPad Prism.
For orientation: Cellular ATP, detected with luciferase, serves as a proxy for viable cell number.

Data set [5] is described as follows: Liver microsomal stability, human. The class given is in vitro ADME. The settings on record: pH 7.4, human liver microsomes, five time points over 1 h, read-out: HLM CLint. (Microsomes from liver hold many membrane-bound enzymes, among them those of drug oxidation.)
The nature of data set [6]: Hepatocyte stability, human. It counts as in vitro ADME. The settings on record: cryopreserved hepatocytes, over 2 h. The protocol: Human cryopreserved hepatocytes were supplied by BioIVT (lot QZW, 10 pooled donors, Westbury, NY, USA). Mouse cryopreserved hepatocytes were supplied by BioIVT (lot ZPG, pooled male CD-1). Vials of cryopreserved hepatocytes were removed from storage and thawed in a 37 °C water bath with gentle shaking, and then the contents were poured into a 50 mL thawing medium conical tube. Vials were centrifuged at 100× g for 10 min at room temperature. The thawing medium was aspirated, and hepatocytes were resuspended with a serum-free incubation medium to yield ~1.5 × 10^6 cells/mL. Cell viability and density were counted using AO/PI fluorescence staining, and then cells were diluted with a serum-free incubation medium to a working cell density of 0.5 × 10^6 viable cells/mL. Aliquots of 198 μL of hepatocytes were dispensed into each well of a 96-well noncoated plate. The plate was placed in an incubator for approximately 10 min. […] Peak areas were determined from extracted ion chromatograms, and the slope value, k, was determined by linear regression of the natural logarithm of the remaining percentage of the parent drug vs. incubation time curve. The intrinsic clearance (CLint in μL/min/10^6 cells) was calculated using the relationship CLint = kV/N, where V is the incubation volume (0.2 mL) and N is the number of hepatocytes per well (0.1 × 10^6 cells). […]

A further data set has as its target T1, CSNK2A1 (Homo sapiens, UniProt P68400).
T1 construct: expressed in transfected cells; host or cells: HEK293
Set-up: method as in PMID 37901516. The settings on record: NanoBRET; cited from earlier work.

The target of another data set is T2, CSNK2A2 (Homo sapiens, UniProt P19784).
T2 construct: expressed in transfected cells; host or cells: HEK293
T2 sequence (P19784 whole entry): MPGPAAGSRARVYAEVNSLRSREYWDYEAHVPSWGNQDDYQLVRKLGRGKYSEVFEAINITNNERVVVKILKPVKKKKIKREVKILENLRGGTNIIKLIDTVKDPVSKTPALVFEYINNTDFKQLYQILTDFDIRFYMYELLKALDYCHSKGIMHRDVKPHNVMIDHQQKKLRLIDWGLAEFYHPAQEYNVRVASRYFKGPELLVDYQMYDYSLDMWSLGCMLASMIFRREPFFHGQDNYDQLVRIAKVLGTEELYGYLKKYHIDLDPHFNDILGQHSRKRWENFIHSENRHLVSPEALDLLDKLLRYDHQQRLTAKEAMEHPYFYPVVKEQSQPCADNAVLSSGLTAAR
Set-up: method as in PMID 37901516. The settings on record: NanoBRET; cited from earlier work. For orientation: In BRET a luciferase serves as donor, and the signal depends on an acceptor being close.

For data set [7], the system named is mouse hepatitis virus (MHV). Details: method as in PMID 37901516. The settings on record: cited from earlier work.
The conditions of data set [8]: cited from earlier work. This is another data set of the same source.
The conditions of data set [9]: cited from earlier work. This is another data set of the same source.

Each structure is given as a SMILES string. Like-named read-outs stand apart in the source and are kept apart here. Marks after values point to notes of the source that are not given here.

T1 sequence (P68400 whole entry): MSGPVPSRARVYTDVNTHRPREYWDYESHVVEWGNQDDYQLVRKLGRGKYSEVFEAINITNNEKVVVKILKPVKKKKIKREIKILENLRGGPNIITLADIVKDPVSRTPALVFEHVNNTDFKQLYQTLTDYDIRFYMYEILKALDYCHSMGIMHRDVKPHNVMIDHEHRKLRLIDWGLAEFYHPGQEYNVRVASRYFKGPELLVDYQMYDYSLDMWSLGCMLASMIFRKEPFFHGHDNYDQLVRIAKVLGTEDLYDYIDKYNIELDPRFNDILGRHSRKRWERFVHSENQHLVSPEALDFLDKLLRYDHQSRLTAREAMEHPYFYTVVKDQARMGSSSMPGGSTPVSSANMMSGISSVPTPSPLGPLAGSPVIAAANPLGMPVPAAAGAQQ

As to `CCC(=O)Nc1cc(Nc2cc(NC3CC3)n3ncc(C#N)c3n2)ccc1C` [SGC-CK2-1, reference compound], the “stability in mouse liver microsomes” value in data set [1] is listed as “poor stability in mouse liver microsomes”. In [2], the solubility entry was “poor solubility”.
As to `O=c1nc(NO)ccn1[C@@H]1O[C@H](CO)[C@@H](O)[C@H]1O` [EIDD-1931, reference compound], the IC50 in data set [3] is 1200 nM.
By viability is commonly meant a read-out of living cells in per cent, often relative to untreated cells. Read a low viability as more harm to the cells. One may read the Cmax as the maximum level reached in the sampled fluid or tissue. The Tmax is the time from dosing to the highest level. What is called Vdss is a proportionality between amount in the body and measured concentration, not a real space. On to `CCC(=O)Nc1cc(Nc2cc(NC3CC3)n3ncc(C#N)c3n2)ccc1N1CCC[C@H](NC)C1` [Compound 1], for which the IC50 in the data set on SARS-CoV-2 was 631 nM. Also, in data set [4] (0.1 μM), the viability at 48 h, 0.1 µM was 100%. This compound also displayed a viability at 48 h, 1 µM in data set [4] (1.0 μM) of 79%. Further, in data set [5], the CLint scaled at 5 μM came out at 12.5 mL/min/kg. The CLint scaled at 1 μM in data set [6] was 4.1 mL/min/kg. At CSNK2A1, the “CSNK2A1 pIC50” value is reported as 7.6 ^f. Also, the “CSNK2A2 pIC50” value on CSNK2A2 is 7.7 ^f. Also, the “MHV pIC50” value in data set [7] is listed as 6.9 ^f. In data set [2] (pH 7.4), the “Kinetic Solubility” value is 71 ^f μg/mL. For the same compound, in data set [8] (mouse plasma, 10 mg/kg i.p.), the AUClast was 7.01 µM·h, the highest concentration (Cmax) is 4.71 µM and the time to peak (Tmax) is listed as 0.25 h. For the same compound, the t1/2 in data set [8] (mouse, in vivo, ip, 10 mg/kg) is recorded as 1.2 h. In [8] (mouse, in vivo, iv, 1 mg/kg), the AUClast is 1.4 µM·h, the volume of distribution (Vdss) is on record as 2.6 L/kg and the t1/2 is on record as 1.3 h. Moreover, in [9], the “Mouse Hepatocytes CLint” value is 143 mL/min/kg.

The values above are taken from PMC11397024, “Strategic Fluorination to Achieve a Potent, Selective, Metabolically Stable, and Orally Bioavailable Inhibitor of CSNK2” (Molecules, 2024).
